Experimental data taken from patent US8354414B2, “Substituted bicyclic pyrimidines” (Cephalon, Inc, priority 2006, dated 2013).
Structures can show the parent of a compound that is named as a salt. Where two headings read alike, the source gives them in different places.

Assays:
CDK5/GST-p25 = target: T1, CDK5/GST-p25 (Homo sapiens, UniProt Q00535); experiment: Inhibition of CDK5/GST-p25 kinase activity (ELISA with time-resolved fluorescence readout); format: biochemical
T1 construct: The final construct, encoding for full-length human CDK5; made in house; host or cells: Sf21 insect cells (baculovirus co-infection)
In short: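 The substrate, GST-Rb(773-928), was immobilised on plates and phosphorylated for 20 min at 37 °C by 2 ng/ml CDK5/GST-p25 in HEPES pH 7.2 with 10 µM ATP and 10 mM MgCl2. Both proteins were human and co-expressed in insect cells. Ser-780 phosphorylation was read by europium time-resolved fluorescence and converted to IC50.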

His6-GSK-3β = target: T2, His6-GSK-3β (Homo sapiens, UniProt P49841); experiment: Inhibition of His6-GSK-3β kinase activity (ELISA-based format, time-resolved fluorescence readout); format: biochemical; conditions: read-out: GSK3β IC50
T2 construct: made in house; host or cells: Sf21 insect cells (baculovirus)
In short: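 Plate-bound recombinant GST-Rb substrate was phosphorylated for 30 min at 37° C by baculovirus-expressed His6-GSK-3β (200 ng/ml) at 20 μM ATP, 10 mM MgCl2, 2.5% DMSO. Europium time-resolved fluorescence of anti-phospho-Ser780 Rb signal gave inhibition, fitted to IC50.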

T2 sequence (P49841 2-419): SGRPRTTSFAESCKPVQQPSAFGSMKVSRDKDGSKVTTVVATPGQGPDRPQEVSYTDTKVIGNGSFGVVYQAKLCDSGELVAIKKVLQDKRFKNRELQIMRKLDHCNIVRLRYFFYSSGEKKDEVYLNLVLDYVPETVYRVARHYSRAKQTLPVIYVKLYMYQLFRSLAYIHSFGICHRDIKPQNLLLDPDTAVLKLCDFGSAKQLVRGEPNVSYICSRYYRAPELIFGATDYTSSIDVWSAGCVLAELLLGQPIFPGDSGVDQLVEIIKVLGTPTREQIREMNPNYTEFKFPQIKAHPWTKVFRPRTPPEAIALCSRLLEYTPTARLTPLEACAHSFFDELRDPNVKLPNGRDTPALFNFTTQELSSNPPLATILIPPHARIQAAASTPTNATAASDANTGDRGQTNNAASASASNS
T1 sequence (Q00535 whole entry): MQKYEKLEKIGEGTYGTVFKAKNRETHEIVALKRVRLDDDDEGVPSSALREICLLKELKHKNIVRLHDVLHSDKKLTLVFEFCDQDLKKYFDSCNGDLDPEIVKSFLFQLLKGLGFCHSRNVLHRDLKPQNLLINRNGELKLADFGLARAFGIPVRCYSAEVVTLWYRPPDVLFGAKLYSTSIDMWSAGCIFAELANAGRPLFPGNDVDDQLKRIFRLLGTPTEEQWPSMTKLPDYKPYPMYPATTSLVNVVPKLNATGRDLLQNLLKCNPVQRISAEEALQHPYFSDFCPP
T1 sequence (Q15078 108-307 partner limits assumed): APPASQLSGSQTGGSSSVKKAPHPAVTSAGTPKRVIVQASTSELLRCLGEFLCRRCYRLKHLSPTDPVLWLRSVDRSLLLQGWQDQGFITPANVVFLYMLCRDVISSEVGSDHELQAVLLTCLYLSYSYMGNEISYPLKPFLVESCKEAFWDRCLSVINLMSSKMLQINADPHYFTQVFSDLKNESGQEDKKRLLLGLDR

| IC50 (CDK5/GST-p25; class symbols) | IC50 (His6-GSK-3β; class symbols) | IC50 (CDK5/GST-p25; numeric bounds) | IC50 (His6-GSK-3β; numeric bounds) | CDK5 % @10 μM (CDK5/GST-p25; @10 μM) | Compound |
| --- | --- | --- | --- | --- | --- |
| > 10000 nM | < 300 nM | – | – | – | CN(C)CCN1CCN(c2nc(C3C(=O)Nc4ccc(Cl)cc43)c3cn(C4CCCC4)nc3n2)CC1 (stereo not shown) [Example 144, 5-Chloro-3-{2-cyclopentyl-6-[4-(2-dimethylamino-ethyl)-piperazin-1-yl]-2H-pyrazolo[3,4-d]pyrimidin-4-yl}-1,3-dihydro-indol-2-one] |
| 300 to 3000 nM | 300 to 3000 nM | – | – | – | CN(C)CCCNc1nc2c(c(C3C(=O)Nc4ccc(C#N)cc43)n1)CCC2 (stereo not shown) [Example 342, 3-[2-(3-Dimethylamino-propylamino)-6,7-dihydro-5H-cyclopentapyrimidin-4-yl]-2-oxo-2,3-dihydro-1H-indole-5-carbonitrile] |
| < 300 nM | < 300 nM | – | – | – | N#Cc1ccc2c(c1)C(c1nc(NCCc3ccncc3)nc3nn(C4CCCC4)cc13)C(=O)N2 (stereo not shown) [Example 126, 3-(2-cyclopentyl-6-(2-pyridin-4-yl-ethylamino)-2H-pyrazolo [3,4-d]pyrimidin-4-yl)-2-oxo-2,3-dihydro-1H-indole-5-carbonitrile] |
| – | < 300 nM | > 3000 nM | – | – | CN(C)CCNc1nc(C2C(=O)Nc3ccc(Br)cc32)c2cn(C3CCCC3)nc2n1 (stereo not shown) [Example 370, 5-Bromo-3-[2-cyclopentyl-6-(2-dimethylamino-ethylamino)-2H-pyrazolo [3,4-d]pyrimidin-4-yl]-1,3-dihydro-indol-2-one] |
| > 10000 nM | > 10000 nM | – | – | – | COc1ccc(Nc2nc3c(c(C4C(=O)Nc5ccc(C#N)cc54)n2)CCC3)cn1 (stereo not shown) [Example 352, 3-[2-(6-Methoxy-pyridin-3-ylamino)-6,7-dihydro-5H-cyclopentapyrimidin-4-yl]-2-oxo-2,3-dihydro-1H-indole-5-carbonitrile] |
| < 300 nM | < 300 nM | – | – | – | C[C@@H](O)CNc1nc(C2C(=O)Nc3ccc(Br)cc32)c2cn(C)nc2n1 (stereo partly drawn) [Example 358, 5-Bromo-3-[6-(2-(R)-hydroxy-propylamino)-2-methyl-2H-pyrazolo [3,4-d]pyrimidin-4-yl]-1,3-dihydroindol-2-one] |
| > 10000 nM | > 10000 nM | – | – | – | O=C1Nc2ccc(Cl)cc2C1c1nc(Cl)nc2c1CCC2 (stereo not shown) [Example 316, 5-Chloro-3-(2-chloro-6,7-dihydro-5H-cyclopentapyrimidin-4-yl)-1,3-dihydro-inodol-2-one] |
| 300 to 3000 nM | 300 to 3000 nM | – | – | – | CCCn1cc2c(C3C(=O)Nc4ccc(C)cc43)nc(NCCN(C)C)nc2n1 (stereo not shown) [Example 309, 3-[6-(2-Dimethylamino-ethylamino)-2-propyl-2H-pyrazolo[3,4-d]pyrimidin-4-yl]-5-methyl-1,3-dihydro-indol-2-one] |
| > 10000 nM | < 300 nM | – | – | – | CN(Cc1cccnc1)c1nc(C2C(=O)Nc3ccc(C#N)cc32)c2cn(C3CCCC3)nc2n1 (stereo not shown) [Example 172, 3-[2-Cyclopentyl-6-(methyl-pyridin-3-ylmethyl-amino)-2H-pyrazolo [3,4-d]pyrimidin-4-yl]-2-oxo-2,3-dihydro-1H-indole-5-carbonitrile] |
| > 10000 nM | < 300 nM | – | – | – | N#Cc1ccc2c(c1)C(c1nc(N3CCN(CCc4ccccn4)CC3)nc3nn(C4CCCC4)cc13)C(=O)N2 (stereo not shown) [Example 129, 3-{2-cyclopentyl-6-[4-(2-pyridin-2-yl-ethyl)-piperazin-1-yl]-2H-pyrazolo [3,4-d]pyrimidin-4-yl}-2-oxo-2,3-dihydro-1H-indole-5-carbonitrile] |
| > 10000 nM | > 10000 nM | – | – | – | CCOCCNc1nc2c(c(C3C(=O)Nc4ccc(Br)cc43)n1)CCC2 (stereo not shown) [Example 334, 5-Bromo-3-[2-(2-ethoxy-ethylamino)-6,7-dihydro-5H-cyclopentapyrimidin-4-yl]-1,3-dihydro-indol-2-one] |
| – | – | > 3000 nM | > 3000 nM | – | O=C1Nc2ccc(Cl)cc2C1c1nc(NCCN2CCOCC2)nc2c1CCC2 (stereo not shown) [Example 324, 5-Chloro-3-[2-(2-morpholin-4-yl-ethylamino)-6,7-dihydro-5H-cyclopentapyrimidin-4-yl]-1,3-dihydro-indol-2-one] |
| < 300 nM | < 300 nM | – | – | – | O=C1Nc2ccc([N+](=O)[O-])cc2C1c1ncnc2nn(C3CCCC3)cc12 (stereo not shown) [Example 33, 3-(2-Cyclopentyl-2H-pyrazolo[3,4-d]pyrimidin-4-yl)-5-nitro-1,3-dihydro-indol-2-one] |
| < 300 nM | < 300 nM | – | – | – | COCCn1cc2c(C3C(=O)Nc4ccc(Br)cc43)nc(NCCC3CCCNC3)nc2n1 (stereo not shown) [Example 228, 5-Bromo-3-[2-(2-methoxy-ethyl)-6-(2-piperidin-3-yl-ethylamino)-2H-pyrazolo[3,4-d]pyrimidin-4-yl]-1,3-dihydro-indol-2-one] |
| 300 to 3000 nM | < 300 nM | – | – | – | O=C1Nc2ccc(Br)cc2C1c1nc(NCc2ccccn2)nc2nn(C3CCCC3)cc12 (stereo not shown) [Example 179, 5-Bromo-3-{2-cyclopentyl-6-[(pyridin-2-ylmethyl)-amino]-2H-pyrazolo [3,4-d]pyrimidin-4-yl}-1,3-dihydro-1H-indol-2-one] |
| > 10000 nM | > 10000 nM | – | – | – | CCOCCNc1nc2c(c(C3C(=O)Nc4ccc(F)cc43)n1)CCC2 (stereo not shown) [Example 319, 3-[2-(2-Ethoxy-ethylamino)-6,7-dihydro-5H-cyclopentapyrimidin-4-yl]-5-fluoro-1,3-dihydro-indol-2-one] |
| < 300 nM | < 300 nM | – | – | – | CCOCCn1cc2c(C3C(=O)Nc4ccc(Cl)cc43)nc(NCc3cccnc3)nc2n1 (stereo not shown) [Example 213, 5-Chloro-3-{2-(2-ethoxy-ethyl)-6[(pyridin-3-ylmethyl)-amino]-2H-pyrazolo[3,4-d]pyrimidin-4-yl}-1,3-dihydro-indol-2-one] |
| < 300 nM | < 300 nM | – | – | – | C=CCNc1nc(C2C(=O)Nc3ccc(Br)cc32)c2cn(C)nc2n1 (stereo not shown) [Example 301, 3-(6-Allylamino-2-methyl-2H-pyrazolo[3,4-d]pyrimidin-4-yl)-5-bromo-1,3-dihydro-indol-2-one] |
| – | < 300 nM | – | – | 70% @10 μM | O=C1Nc2ccc(Br)cc2C1c1nc(NCCc2cccnc2)nc2nn(C3CCCC3)cc12 (stereo not shown) [Example 181, 5-Bromo-3-[2-cyclopentyl-6-(2-pyridin-3-yl-ethylamino)-2H-pyrazolo [3,4-d]pyrimidin-4-yl]-1,3-dihydro-1H-indol-2-one] |
| < 300 nM | < 300 nM | – | – | – | COCCCNc1nc(C2C(=O)Nc3ccc(C#N)cc32)c2cn(C3CCCC3)nc2n1 (stereo not shown) [Example 175, 3-[2-Cyclopentyl-6-(3-methoxy-propylamino)-2H-pyrazolo [3,4-d]pyrimidin-4-yl]-2-oxo-2,3-dihydro-1H-indole-5-carbonitrile] |
| 300 to 3000 nM | < 300 nM | – | – | – | N#Cc1ccc2c(c1)C(c1nc(NCCN3CCSCC3)nc3nn(C4CCCC4)cc13)C(=O)N2 (stereo not shown) [Example 178, 3-[2-Cyclopentyl-6-(2-thiomorpholin-4-yl-ethylamino)-2H-pyrazolo[3,4-d]pyrimidin-4-yl]-2-oxo-2,3-dihydro-1H-indole-5-carbonitrile] |
| < 300 nM | < 300 nM | – | – | – | CCCn1cc2c(C3C(=O)Nc4ccc(Br)cc43)nc(NCCCNC)nc2n1 (stereo not shown) [Example 201, 5-Bromo-3-[6-(3-methylamino-propylamino)-2-propyl-2H-pyrazolo [3,4-d]pyrimidin-4-yl]-1,3-dihydro-indol-2-one hydrochloride] |

| Compound | IC50 (CDK5/GST-p25; class symbols) | IC50 (His6-GSK-3β; class symbols) | IC50 (CDK5/GST-p25; numeric bounds) | IC50 (His6-GSK-3β; numeric bounds) | CDK5 % @10 μM (CDK5/GST-p25; @10 μM) |
| --- | --- | --- | --- | --- | --- |
| O=C1Nc2ccc(Cl)cc2C1c1nc(NCc2ccc(Cl)nc2)nc2c1CCC2 (stereo not shown) [Example 328, 5-Chloro-3-{2-[(6-chloro-pyridin-3-ylmethyl)-amino]-6,7-dihydro-5H-cyclopentapyrimidin-4-yl}-1,3-dihydro-indol-2-one] | > 10000 nM | > 10000 nM | – | – | – |
